Reference: patent US12358921B2, “Antiviral heterocyclic compounds” (priority 2022, dated 2025)

Assays:
[1] = test system: HUMAN RSV-A (“LONG” STRAIN); assay: RSV-A assay (CPE, ATPlite) in Hep-2 cells; assay type: cell-based; settings: human respiratory syncytial virus, 120 h, MOI 0.1, 5-day incubation
Text: Methods for RSV-A Assay Hep-2 cells, (originally derived from tumors grown in irradiated-cortisonised weanling rats that had been injected with epidermoid carcinoma tissue from the larynx of a person, but later found to be indistinguishable from HeLa cells by PCR DNA analysis), were used for the culturing of genotype A, “Long” strain RSV. Flasks were inoculated with RSV and viral stocks were collected once cytopathic effect (CPE) was greater than 90%. Viral stocks in 25% sucrose media were snap frozen using liquid nitrogen to increase viral stability. Viral stock titers were quantified by tissue culture infectious dose 50% (TCID50) using 8,000 cells per well and 3-fold viral dilutions across a 96-well plate, cultured for 4 days. Viral stock titers were also quantified by a plaque forming unit assay, as described elsewhere.
Following extensive parameter testing, the final assay is run as follows: Hep-2 cells are seeded into the inner 60 wells of a 96-well plate at 8,000 cells per well in a volume of 50 μL using Growth Media (DMEM without phenol red, 1% L-Glut, 1% Penn/Strep, 1% nonessential amino acids, 10% heat-inactivated FBS). 2-fold serial dilutions of control and test compounds are added to the wells in duplicate in a total volume of 25 μL. Viral stock is then added to the wells at a multiplicity of infection (MOI) of 0.1 in a volume of 25 μL, bringing the total volume of each well to 100 μL. The MOI is calculated using the PFU/mL, or TCID50 if unavailable. Each 96-well plate has a control column of 6 wells with cells and virus but no compound (negative control, max CPE), a column with cells but no compound or virus (positive control, minimum CPE), and a column with no cells or virus or compound (background plate/reagent control). The control wells with cells but no virus are given an additional 25 μL of growth media containing an equal quantity of sucrose as those wells receiving the viral stock in order to keep consistent in media and volume conditions. The outer wells of the plate are filled with 125 μL of moat media (DMEM, 1% Penn/Strep) to act as a thermal and evaporative moat around the test wells. Following a 5-day incubation period, the plates are read using ATPlite (50 uL added per well), which quantifies the amount of ATP (a measure of cell health) present in each well. Assay plates are read using the Envision luminometer. […] EC50 ranges are as follows: A<0.2 μM; B>0.2 μM.

hMPV A2 TN/94-49 = assay: HMPV antiviral assay Method 2 (LLC-MK2 cells with CP-100-356, ATP-Lite); assay type: cell-based; settings: hMPV A2 TN/94-49, LLC-MK2 cells, 4 μM CP-100-356, Method 2
Method: In vitro HMPV antiviral activity was evaluated using the clinical isolate A2 strain TN 94-49 (obtained from Dr. John Williams, Vanderbilt University, Tennessee) and LLC-MK2 cells (Millipore Sigma CB_85062804), an immortalized kidney epithelial cell line from Macaca mulatta. Compounds were resuspended in dimethyl sulfoxide (DMSO) at 10 mM, serially diluted and added to a 384-well source plate. Subsequently, the compounds were diluted and transferred onto 384-well assay plates using the Echo-650 automated liquid handling system (Beckman Coulter, Indiana). The test compounds were assessed in duplicate at a top concentration of 200 nM followed by 2.5-fold serial dilutions to give a total of 10 concentration points. DMSO control wells were also included on the assay plates and were either infected or not, acting as positive and negative controls. A2 TN 94-49 virus infections were performed in-suspension with LLC-MK2 cells. The cells were washed twice with PBS and removed from the cell-culture flask with 0.25% trypsin-EDTA (Thermo Fisher Scientific, MA). The trypsin-EDTA was inactivated by resuspending in 2% fetal bovine serum (FBS) and OptiMEM (ThermoFisher Scientific, MA) containing 1% antibiotic-antimycotic. Cells were pelleted by centrifuging for 5 minutes at 800 rpm, the supernatant was removed, and cells were re-suspended and washed in PBS plus 100 μg/mL CaCl2). This step was performed twice. Cells were then re-suspended in serum-free (SF)-OptiMEM containing 4 μg/mL TPCK-Trypsin (Sigma Aldrich, MO), 1% antibiotic-antimycotic (ThermoFisher Scientific, MA), 100 μg/mL CaCl2), and 4 μM of CP-100-356, a P-glycoprotein inhibitor. Cells were counted and seeded at a density of 5,000 cells/well, 12.5 μL/well. Virus infections were done at a multiplicity of infection (MOI) of 0.16 with 12.5 μL added per well. Virus infections were performed in infection media which contained SF-OptiMEM, 100 μg/mL CaCl2) and 1% antibiotic-antimycotic. HMPV viral stocks are suspended in infection media+5% glycerol, thus an equal volume of infection media+5% glycerol was added to uninfected wells to equalize the final % glycerol across all wells of the assay plate. The final concentration of TPCK-trypsin was 2 μg/mL. The final concentration of CP-100-356 was 2 μM. The assay plates were incubated at 37° C., 5% CO2 for 7 days. After 7 days incubation, 12.5 μL of ATP-Lite (PerkinElmer, MA) was added to each well and the raw luminescence values were determined using the Envision 2104 (Perkin Elmer, MA). The average of the raw luminescence values for the cells and virus only positive control wells was subtracted from all conditions tested and the percent cell health was determined by dividing these values by the average of the cells only negative control wells. EC50 values were then calculated by non-linear regression using a four-parameter curve logistic equation. The curve fit model employed was XLFit Dose Response One Site Model 200: y=(A+(B/(1+((x/C)^D)))), where A is the minimum y value, B is the maximum y value, C is the log EC50value, and D is the slope factor.

COc1cc(C(=O)NC[C@@](O)(c2ccccc2)c2cc3c(c(-c4cccc(Cl)c4Cl)n2)OC[C@]3(C)C(N)=O)cc2oc(C)nc12 [Example 95]
EC50 [1]: < 200 nM | EC50 (hMPV A2 TN/94-49): < 200 nM

COc1cc(C(=O)NC[C@@](O)(c2ccccc2)c2cc3c(c(-c4cccc(Cl)c4Cl)n2)OC[C@]3(C)C(N)=O)cc2oc(C3CC3)nc12 [Example 96]
EC50 [1]: < 200 nM | EC50 (hMPV A2 TN/94-49): < 200 nM

C[C@]1(C(N)=O)COc2c1cc([C@@](O)(CNC(=O)c1ccc3nc(C4CC4)oc3c1)c1ccccc1)nc2-c1cccc(Cl)c1Cl [Example 97]
EC50 [1]: < 200 nM | EC50 (hMPV A2 TN/94-49): < 200 nM

C[C@]1(C(N)=O)COc2c1cc([C@@](O)(CNC(=O)c1cc(OC3CC3)c3nn(C4CC4)cc3c1)c1ccccc1)nc2-c1cc(Cl)c(F)cc1F [Example 98]
EC50 [1]: < 200 nM | EC50 (hMPV A2 TN/94-49): < 200 nM

C[C@]1(C(N)=O)COc2c1cc([C@@](O)(CNC(=O)c1cc(Cl)c3nn(C4CC4)cc3c1)c1ccccc1)nc2-c1cc(Cl)c(F)cc1F [Example 99]
EC50 [1]: < 200 nM | EC50 (hMPV A2 TN/94-49): < 200 nM

C[C@]1(C(N)=O)COc2c1cc([C@@](O)(CNC(=O)c1cc(F)c3nn(C4CC4)cc3c1)c1ccccc1)nc2-c1cc(Cl)c(F)cc1F [Example 100]
EC50 [1]: < 200 nM | EC50 (hMPV A2 TN/94-49): < 200 nM

C[C@]1(C(N)=O)COc2c1cc([C@@](O)(CNC(=O)c1ccc3nn(C4CC4)cc3c1)c1ccccc1)nc2-c1cc(Cl)c(F)cc1F [Example 101]
EC50 [1]: < 200 nM | EC50 (hMPV A2 TN/94-49): < 200 nM

[2H]C([2H])([2H])NC(=O)[C@@]1(C)COc2c1cc([C@@](O)(CNC(=O)c1cc(OC)c3nn(C4(F)CC4)cc3c1)c1ccccc1)nc2-c1cc(Cl)c(F)cc1F [Example 109]
EC50 [1]: < 200 nM | EC50 (hMPV A2 TN/94-49): < 200 nM

[2H]C([2H])([2H])NC(=O)[C@@]1(C)COc2c1cc([C@@](O)(CNC(=O)c1cc(OC)c3nc(C4CC4)oc3c1)c1ccccc1)nc2-c1cc(Cl)c(F)cc1F [Example 110]
EC50 [1]: < 200 nM | EC50 (hMPV A2 TN/94-49): < 200 nM

COc1cc(C(=O)NC[C@@](O)(c2ccccc2)c2cc3c(c(-c4cc(Cl)c(F)cc4F)n2)OC[C@]3(C)C(N)=O)cc2cc(Cl)nnc12 [Example 113]
EC50 [1]: < 200 nM | EC50 (hMPV A2 TN/94-49): < 200 nM

COc1cc(C(=O)NC[C@@](O)(c2ccccc2)c2cc3c(c(-c4cc(Cl)c(F)cc4F)n2)OC[C@]3(C)C(N)=O)cn2cc(C3CC3)nc12 [Example 115]
EC50 [1]: < 200 nM | EC50 (hMPV A2 TN/94-49): < 200 nM

C[C@]1(C(N)=O)COc2c1cc([C@@](O)(CNC(=O)c1cc(Cl)c3[nH]ncc3c1)c1ccccc1)nc2-c1cc(Cl)c(F)cc1F [Example 117]
EC50 [1]: < 200 nM | EC50 (hMPV A2 TN/94-49): > 200 nM

Cc1nc2c(OC(F)F)cc(C(=O)NC[C@](O)(c3cc4c(c(-c5cc(Cl)c(F)cc5F)n3)OC[C@]4(C)C(N)=O)c3ccccc3F)cc2cc1Br [Example 139]
EC50 [1]: < 200 nM | EC50 (hMPV A2 TN/94-49): > 200 nM

COc1cc(C(=O)NC[C@@](O)(c2ccncc2)c2cc3c(c(-c4cc(Cl)c(F)cc4F)n2)OC[C@]3(C)C(N)=O)cc2cn(C3CC3)nc12 [Example 152]
EC50 [1]: < 200 nM | EC50 (hMPV A2 TN/94-49): < 200 nM

COc1cc(C(=O)NC[C@@](O)(c2cnn(C)c2)c2cc3c(c(-c4cc(Cl)c(F)cc4F)n2)OC[C@]3(C)C(N)=O)cc2cn(C3CC3)nc12 [Example 153]
EC50 [1]: > 200 nM | EC50 (hMPV A2 TN/94-49): > 200 nM

COc1cc(C(=O)NC[C@@](O)(c2cccc(F)n2)c2cc3c(c(-c4cc(Cl)c(F)cc4F)n2)OC[C@]3(C)C(N)=O)cn2cc(C3CC3)nc12 [Example 154]
EC50 [1]: < 200 nM | EC50 (hMPV A2 TN/94-49): < 200 nM

Cc1nc2ccc(C(=O)NC[C@@](O)(c3ccccc3)c3cc4c(c(-c5cc(F)c(F)cc5F)n3)OC[C@]4(C)C(N)=O)cc2o1 [Example 192]
EC50 [1]: < 200 nM | EC50 (hMPV A2 TN/94-49): < 200 nM

COc1cc(C(=O)NC[C@@](O)(c2ccccc2)c2cc3c(c(-c4cc(F)c(F)cc4F)n2)OC[C@]3(C)C(N)=O)cc2oc(C)nc12 [Example 193]
EC50 [1]: < 200 nM | EC50 (hMPV A2 TN/94-49): < 200 nM

COc1cc(C(=O)NC[C@@](O)(c2ccccc2)c2cc3c(c(-c4cc(F)c(F)cc4F)n2)OC[C@]3(C)C(N)=O)cc2oc(C3CC3)nc12 [Example 195]
EC50 [1]: < 200 nM | EC50 (hMPV A2 TN/94-49): < 200 nM

C[C@]1(C(N)=O)COc2c1cc([C@@](O)(CNC(=O)c1cc(OC3CC3)c3ncc(Cl)cc3c1)c1ccccc1)nc2-c1cc(Cl)c(F)cc1F [Example 196]
EC50 [1]: < 200 nM | EC50 (hMPV A2 TN/94-49): < 200 nM

COc1cc(C(=O)NCC(O)(c2cccc(F)c2)c2cc3c(c(-c4cccc(Cl)c4C#N)n2)OC[C@]3(C)C(N)=O)cc2cn(C3(F)CC3)nc12 (stereo partly drawn) [Example 399]
EC50 (hMPV A2 TN/94-49): > 200 nM

COc1cc(C(=O)NC[C@@](O)(c2cnc(C3CC3)nc2)c2cc3c(c(-c4cc(Cl)c(F)cc4F)n2)OC[C@]3(C)C(N)=O)cc2cn(C3CC3)nc12 [Example 478]
EC50 (hMPV A2 TN/94-49): < 200 nM

COc1cc(C(=O)NC[C@@](O)(c2cncnc2)c2cc3c(c(-c4cc(Cl)c(F)cc4F)n2)OC[C@]3(C)C(N)=O)cc2cn(C3CC3)nc12 [Example 479]
EC50 (hMPV A2 TN/94-49): < 200 nM

COc1cc(C(=O)NC[C@](O)(c2cc3c(c(-c4cc(Cl)c(F)cc4F)n2)OC[C@]3(C)C(N)=O)c2ccn(C)n2)cc2cn(C3CC3)nc12 [Example 480]
EC50 (hMPV A2 TN/94-49): < 200 nM

COc1cc(C(=O)NC[C@](O)(c2cc3c(c(-c4cc(Cl)c(F)cc4F)n2)OC[C@]3(C)C(N)=O)c2ccnn2C)cc2cn(C3CC3)nc12 [Example 481]
EC50 (hMPV A2 TN/94-49): < 200 nM

CNc1cc([C@](O)(CNC(=O)c2cc(OC)c3nn(C4CC4)cc3c2)c2cc3c(c(-c4cc(Cl)c(F)cc4F)n2)OC[C@]3(C)C(N)=O)ccn1 [Example 490]
EC50 (hMPV A2 TN/94-49): < 200 nM

COc1cc(C(=O)NC[C@@](O)(c2cnoc2)c2cc3c(c(-c4cc(Cl)c(F)cc4F)n2)OC[C@]3(C)C(N)=O)cc2cn(C3CC3)nc12 [Example 491]
EC50 (hMPV A2 TN/94-49): < 200 nM

COc1cc(C(=O)NC[C@@](O)(c2ccnc(F)c2)c2cc3c(c(-c4cccc(Cl)c4Cl)n2)OC[C@]3(C)C(N)=O)cc2cn(C3CC3)nc12 [Example 492]
EC50 (hMPV A2 TN/94-49): < 200 nM

COc1cc([C@](O)(CNC(=O)c2cc(OC)c3nn(C4CC4)cc3c2)c2cc3c(c(-c4cccc(Cl)c4Cl)n2)OC[C@]3(C)C(N)=O)ccn1 [Example 494]
EC50 (hMPV A2 TN/94-49): < 200 nM

COc1cc(C(=O)NC[C@@](O)(c2cccc(C(C)O)c2)c2cc3c(c(-c4cccc(Cl)c4Cl)n2)OC[C@]3(C)C(N)=O)cc2cn(C3CC3)nc12 (stereo partly drawn) [Example 495]
EC50 (hMPV A2 TN/94-49): > 200 nM

COc1cc([C@](O)(CNC(=O)c2cc(OC)c3nn(C4CC4)cc3c2)c2cc3c(c(-c4cc(Cl)c(F)cc4F)n2)OC[C@]3(C)C(N)=O)cc(F)n1 [Example 503]
EC50 (hMPV A2 TN/94-49): < 200 nM
